Molecular target: T1, Allene oxide synthase, chloroplastic (Arabidopsis thaliana, UniProt Q96242)
T1 sequence (Q96242 whole entry): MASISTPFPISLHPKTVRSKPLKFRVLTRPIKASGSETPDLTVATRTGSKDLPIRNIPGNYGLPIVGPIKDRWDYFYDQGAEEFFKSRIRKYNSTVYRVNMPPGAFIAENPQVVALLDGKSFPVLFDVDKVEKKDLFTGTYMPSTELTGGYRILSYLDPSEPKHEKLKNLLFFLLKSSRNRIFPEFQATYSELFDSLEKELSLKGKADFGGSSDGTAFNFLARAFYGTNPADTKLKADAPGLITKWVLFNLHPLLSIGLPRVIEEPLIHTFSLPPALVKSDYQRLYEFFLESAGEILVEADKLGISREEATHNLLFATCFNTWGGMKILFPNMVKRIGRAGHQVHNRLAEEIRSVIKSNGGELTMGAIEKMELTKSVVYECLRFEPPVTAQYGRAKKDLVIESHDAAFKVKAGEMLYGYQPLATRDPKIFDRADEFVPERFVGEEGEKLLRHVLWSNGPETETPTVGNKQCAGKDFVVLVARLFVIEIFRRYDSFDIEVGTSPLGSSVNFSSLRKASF
Test: Inhibition of recombinant Arabidopsis thaliana allene oxide synthase activity by spectrophotometry

Row | IC50 | SMILES
1 | 54300 nM | COC(=O)CCCCCCCOC(Cn1cncn1)c1ccc(-c2ccccc2)cc1 (stereo unspecified)
2 | 1600 nM | COC(=O)CCCCCCCOC(Cn1cncn1)c1ccccc1 (stereo unspecified)
3 | 2600 nM | COC(=O)CCCCCCCOC(Cn1cncn1)c1ccc(OC)cc1 (stereo unspecified)
4 | 750 nM | COC(=O)CCCCCCCOC(Cn1cncn1)c1ccc2ccccc2c1 (stereo unspecified)

More lines, now with the values behind:

Row | SMILES | IC50
5 | COC(=O)CCCCCCCOC(Cn1ccnc1)c1ccc(Cl)cc1Cl (stereo unspecified) | 850 nM
6 | COC(=O)CCCCCCCOC(Cn1cncn1)c1ccc(Cl)cc1Cl (stereo unspecified) | 840 nM
7 | COC(=O)CCCCCCCOC(Cn1cncn1)c1cccc(OC)c1 (stereo unspecified) | 22500 nM
8 | COC(=O)CCCCCCCOC(Cn1cncn1)c1ccc(Cl)cc1 (stereo unspecified) | 1200 nM
9 | COC(=O)CCCCCCCOC(Cn1cncn1)c1ccc(Cl)c(Cl)c1 (stereo unspecified) | 930 nM
10 | CCCCCCCOC(=O)CCCCCCCOC(Cn1ccnc1)c1ccc(Cl)cc1Cl (stereo unspecified) | 10 nM
11 | COC(=O)CCCCCCCOC(Cn1cncn1)c1ccc(F)cc1 (stereo unspecified) | 14500 nM
